Among the test systems are A498 renal; HCT-15 colon; HOP-92 NSCLC; K-562 leukemia; OVCAR-3 ovarian; OVCAR-4 ovarian; RPMI-8226 leukemia; SF-268 CNS; SN12C renal; T-47D breast.
Experiment in all cases: DTP human tumour cell line panel, 48 h

The record followed here is PubChem BioAssay (NCI).

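Five compound concentrations were applied to cells in 96-well plates for 48 hours; endpoints were derived by simple linear interpolation of the resulting dose-response curve. GI50 marks 50% less growth. TGI is the concentration that stops growth completely.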 Some results are limits rather than exact numbers.

Take `CC(=O)OC1C2(CC3N4C(=O)C5(CO)SSC4(CC31O)C(=O)N5C)OC(C)C(C)(C)C2=O` (configuration not stated): the concentration for 50% growth inhibition (GI50) (as a rule, the concentration that inhibits growth by half) with A498 renal is 0.0352 µM; in the assay with HCT-15 colon, < 0.01 µM; in the assay with HOP-92 NSCLC, 0.0763 µM; in the assay with K-562 leukemia, < 0.0288 µM; with OVCAR-3 ovarian, 1.32 µM; with OVCAR-4 ovarian, < 0.0114 µM. The GI50 is < 0.0398 µM in the assay on RPMI-8226 leukemia, 0.896 µM in the assay with SF-268 CNS, < 0.0114 µM in the assay with SN12C renal and < 0.01 µM in the assay on T-47D breast. For the same compound, the TGI – broadly, the concentration at which net growth stops – with A498 renal was 0.0717 µM; in the assay on HCT-15 colon it was < 0.0197 µM; in the assay with HOP-92 NSCLC, 0.214 µM; in the assay with K-562 leukemia, 1.91 µM; with OVCAR-3 ovarian it was 3.01 µM; in the assay on OVCAR-4 ovarian, 0.0345 µM. The concentration for total growth inhibition (TGI) in the assay with SF-268 CNS came to 2.95 µM; in the assay with SN12C renal it was 0.05 µM; with T-47D breast it was 0.0782 µM.

With `Nc1nc(OCc2ccccc2)nc2[nH]ncc12`, the GI50 with A498 renal was 11.2 µM; in the assay with HCT-15 colon, 30.9 µM; in the assay on HOP-92 NSCLC it was > 100 µM; with K-562 leukemia, 19.7 µM; in the assay on OVCAR-3 ovarian, 11.5 µM; in the assay with OVCAR-4 ovarian, 17.5 µM. The GI50 was 15.2 µM in the assay with RPMI-8226 leukemia, 17.1 µM in the assay on SF-268 CNS, 13.9 µM in the assay with SN12C renal and 4.12 µM in the assay with T-47D breast. Besides, the TGI with A498 renal was 26.4 µM; with HCT-15 colon it was > 100 µM; in the assay with HOP-92 NSCLC it was > 100 µM; in the assay with K-562 leukemia, > 100 µM; in the assay with OVCAR-3 ovarian, 25.2 µM; in the assay on OVCAR-4 ovarian, 63.4 µM. The total growth inhibition concentration (TGI) in the assay on RPMI-8226 leukemia was found to be 38.6 µM; with SF-268 CNS, 48.4 µM; in the assay on SN12C renal, 28.5 µM; in the assay on T-47D breast, 9.69 µM.

Regarding `C=C(C)CCC(C)N1CCC(N2CCC(C(=O)NCCc3ccccc3)CC2)CC1` (configuration not stated), the GI50 in the assay with A498 renal was 4.55 µM; in the assay with HCT-15 colon, 16.7 µM; in the assay on HOP-92 NSCLC, 13.4 µM; in the assay on K-562 leukemia, 9.9 µM; in the assay on OVCAR-3 ovarian, 53.7 µM; in the assay on OVCAR-4 ovarian, 5.97 µM. The GI50 in the assay on RPMI-8226 leukemia was 10.1 µM; in the assay on SF-268 CNS it was 98 µM; in the assay on SN12C renal, 55.5 µM; in the assay on T-47D breast it was 13.4 µM. The total growth inhibition concentration (TGI) is 44.4 µM in the assay on A498 renal; 57.6 µM with HCT-15 colon; 62 µM with HOP-92 NSCLC; 34.2 µM with K-562 leukemia; > 100 µM with OVCAR-3 ovarian; 73 µM in the assay with OVCAR-4 ovarian. Further, the concentration for total growth inhibition (TGI) in the assay on RPMI-8226 leukemia, with SF-268 CNS, in the assay on SN12C renal and with T-47D breast was > 100 µM each time.

Take `CCCCC[C@H]1C/C=C2/C(=O)C(Cl)=C[C@@H]2C/C=C\CCCC(=O)O[C@@H](CCCCC)C/C=C2/C(=O)C(Cl)=C[C@@H]2C/C=C\CCCC(=O)O1`: the GI50 in the assay on A498 renal was 0.465 µM; in the assay with HCT-15 colon, 0.49 µM; with HOP-92 NSCLC it was 0.314 µM; in the assay with K-562 leukemia, 0.314 µM; in the assay on OVCAR-3 ovarian, 0.268 µM; with OVCAR-4 ovarian it was 0.461 µM. Besides, the concentration for 50% growth inhibition (GI50) in the assay on RPMI-8226 leukemia was 0.188 µM; in the assay on SF-268 CNS, 0.479 µM; with SN12C renal it was 0.482 µM; in the assay on T-47D breast, 0.39 µM. The TGI is 1.41 µM with A498 renal; 1.85 µM in the assay on HCT-15 colon; 0.687 µM in the assay with HOP-92 NSCLC; 2.29 µM in the assay on K-562 leukemia; 0.555 µM in the assay with OVCAR-3 ovarian; 1.79 µM in the assay with OVCAR-4 ovarian. In addition, the TGI in the assay on RPMI-8226 leukemia is 0.973 µM; with SF-268 CNS, 1.68 µM; with SN12C renal it was 2.72 µM; in the assay on T-47D breast it was 1.18 µM.

For `Fc1ccc(Nc2nccc(-c3c(-c4ccc(C(F)(F)F)cc4)nn4ncccc34)n2)cc1F`, the GI50 in the assay on A498 renal, with HCT-15 colon, in the assay on HOP-92 NSCLC, in the assay on K-562 leukemia, with OVCAR-3 ovarian and with OVCAR-4 ovarian was > 25 µM each time. For the same compound, the GI50 with RPMI-8226 leukemia, in the assay with SF-268 CNS, in the assay on SN12C renal and with T-47D breast was > 25 µM in each case. Further, the TGI in the assay with A498 renal, in the assay on HCT-15 colon, in the assay on HOP-92 NSCLC, in the assay on K-562 leukemia, in the assay on OVCAR-3 ovarian and in the assay on OVCAR-4 ovarian was > 25 µM each time. Besides, the concentration for total growth inhibition (TGI) with RPMI-8226 leukemia, with SF-268 CNS, in the assay on SN12C renal and in the assay with T-47D breast was > 25 µM throughout.

Regarding `Fc1ccc(Nc2nc(NCCNc3ccnc4cc(Cl)ccc34)nc(N3CCOCC3)n2)cc1`, the GI50 is 1.48 µM with A498 renal; 2.46 µM with HCT-15 colon; 1.03 µM in the assay on HOP-92 NSCLC; 2.91 µM with K-562 leukemia; 11.9 µM in the assay with OVCAR-3 ovarian; 10.7 µM in the assay on OVCAR-4 ovarian. The GI50 in the assay with RPMI-8226 leukemia was 3.15 µM; with SF-268 CNS, 6.85 µM; in the assay on SN12C renal, 11.6 µM; with T-47D breast it was 10.9 µM. Further, the TGI in the assay with A498 renal came out at 8.47 µM; in the assay with HCT-15 colon, 6.56 µM; in the assay with HOP-92 NSCLC it was 6.88 µM; in the assay on K-562 leukemia, 10.3 µM; in the assay with OVCAR-3 ovarian it was 24.5 µM; in the assay with OVCAR-4 ovarian, 23.1 µM. For the same compound, the concentration for total growth inhibition (TGI) was found to be 14.6 µM with RPMI-8226 leukemia, 20.5 µM in the assay on SF-268 CNS, 25 µM in the assay on SN12C renal and 27.4 µM with T-47D breast.

On to `Oc1cc(Cl)ccc1Oc1ccc(Cl)cc1Cl`, for which the GI50 with A498 renal was 2.8 µM; in the assay on HCT-15 colon, 3.31 µM; in the assay on HOP-92 NSCLC it was 2.11 µM; with OVCAR-3 ovarian it was 5.21 µM; in the assay with OVCAR-4 ovarian it was 2.79 µM; in the assay with RPMI-8226 leukemia it was 2.02 µM. In addition, the GI50 in the assay with SF-268 CNS was 4.53 µM; with SN12C renal, 3.12 µM; with T-47D breast, 3.03 µM. The total growth inhibition concentration (TGI) in the assay with A498 renal is 14.1 µM; with HCT-15 colon, 10.9 µM; in the assay on HOP-92 NSCLC it was 5.69 µM; in the assay with OVCAR-3 ovarian it was 17.2 µM; in the assay on OVCAR-4 ovarian it was 9.41 µM; with RPMI-8226 leukemia, 5.7 µM. Moreover, the TGI came out at 16.4 µM with SF-268 CNS, 11.4 µM in the assay with SN12C renal and 9.94 µM with T-47D breast.
